Reference: patent publication US20070099881A1, “Method of treating wounds by enhancing expression of procollagen” (priority 2001, published 2007)
“Also recorded” adds a separate entry of the source.

Legend:
HF 250 cells = test: Cell number and morphology of fibroblasts grown on collagen or plastic; assay type: cell-based, human; conditions: 3 μg/ml, 24 hours
Description: (§1) Equal numbers of fibroblasts were plated onto tissue culture plastic dishes or collagen-coated Petri dishes. Four confluent 10 cm dishes of HF 250 cells were split in half and the cells replated in four 10 cm collagen-coated and four uncoated dishes. Two collagen-coated dishes and two uncoated dishes received 3 μg/ml of oxandrolone. The two remaining collagen-coated and uncoated dishes received an equal volume of 10% dimethyl-sulfoxide alone. After 24 hours of incubation, the medium was removed and the dishes rinsed with phosphate buffered saline. Northern blot analysis was used to determine the levels of both type I and type III procollagen mRNA expression. Total RNA was extracted from culture cells, using the Total RNA Isolation kit (Ambion, Inc; Austin, Tex.) following the supplier's instructions. Type I and type III procollagen cDNAs were purchased from American Type Culture Collection (Manassas, Va.). The human α1 (I) (HF677) and α1 (III) (HF934) procollagen cDNAs were enzymatically cleaved, purified, and subsequently end-labeled with ^32P dCTP (New England Nuclear, Boston, Mass.) to generate specific cDNA probes.
By 24 hours, the density of cells on the plastic surface appeared greater than the density of cells grown on collagen. […] See, e.g., Greco and Ehrlich (1992).

[1] = test system: normal human dermal fibroblasts (HF 250); test: Pilot study: collagen produced by fibroblast cultures, pepsin extraction and SDS-PAGE of collagen α chains; assay type: cell-based; conditions: 0, 1, 3, 10 or 30 μg/ml tested, 24 hours, ascorbate 50 μg/ml, Coomassie-stained SDS-PAGE; data not shown
Description: (§2) A primary cell line of normal human dermal fibroblasts (HF 250) was derived from the outgrowth of cells from explants of discarded foreskin. Fibroblasts were maintained in Dulbecco's modification of Eagles medium (DMEM) supplemented with 10% fetal bovine serum (FBS). Cells were grown to confluence and passed 1:1 by trypsinization. HF 250 cells were used between their 5th and 7th passages.
(§3) To optimize collagen synthesis and processing by cultured fibroblasts, the culture medium was supplemented with 50 μg/ml of vitamin C as L-ascorbic acid 2-phosphate sesquimagnesium salt (Sigma Chemical Co., St. Louis, Mo.). Oxandrolone was the anabolic steroid tested, and it was supplied by Bio-Technology General Corp., Iselin, N.J. A stock solution of oxandrolone was made in a 10% dimethyl-sulfoxide solution.
An initial pilot study was conducted to determine the concentration of anabolic steroid that would maximize collagen synthesis, as follows. After fibroblast cultures became confluent in 2 days, the culture medium was replaced with a medium supplemented with ascorbate at 50 μg/ml. To each dish, a different concentration of oxandrolone was added (0, 1, 3, 10 or 30 μg/ml). Dishes were incubated for 24 hours in a water saturated atmosphere at 37° in 95% air, 5% CO2. […]

[2] = test system: type III procollagen mRNA; test: Northern blot of type III procollagen mRNA in HF 250 fibroblasts grown on collagen or plastic; assay type: cell-based, human; conditions: 3 μg/ml, 24 hours, vs 10% dimethyl sulfoxide alone; for increase of type III procollagen mRNA expression (ratio to GAPDH mRNA density) relative to control: fibroblasts grown on collagen; for expression of type III procollagen mRNA relative to control: fibroblasts grown on plastic
Description: as §2
(§4) Acid-soluble collagen was isolated from rat tail tendons by acetic acid extraction. Briefly, rat tail tendons were teased from adult rat tails and stirred in ice cold 0.5 M acetic acid for 2 days. The solubilized collagen was cleared by centrifugation and the supernatant made 10% in respect to NaCl w/v. The precipitated collagen was collected by centrifugation, resuspended in 1 mM HCl, dialyzed exhaustively against 1 mM HCl, frozen, lyophilized, weighed, resuspended in sterile ice cold 1 mM HCl at 5 mg/ml and stored at 4° C. until needed. The bottoms of 10 cm Petri dishes were covered with cold, sterile collagen solution. Any free collagen solution was removed with a Pasteur pipette and the coated dishes placed in a 37° C. incubator, where they were incubated overnight to allow complete polymerization of the collagen-coated surface.
as §3
as §1, with “Type I and type III procollagen cDNAs were purchased from American Type Culture Collection (Manassas, Va.). The human α1 (I) (HF677) and α1 (III) (HF934) procollagen cDNAs were enzymatically cleaved, purified, and subsequently end-labeled with ^32P dCTP (New England Nuclear, Boston, Mass.) to generate specific cDNA probes.” left out
(§5) Total extracted RNA was subjected to agarose gel electrophoresis and blotted on a nylon membrane. […] The x-ray film was developed and quantitative analysis done by densitometry. […] The quantities of type I and type III procollagen α1 mRNAs and GAPDH mRNA were determined by densitometry. […]

type I procollagen mRNA = test: Northern blot of type I procollagen mRNA in HF 250 fibroblasts grown on collagen or plastic; assay type: cell-based, human; conditions: 3 μg/ml, 24 hours, vs 10% dimethyl sulfoxide alone; for expression of type I procollagen mRNA (ratio to GAPDH mRNA density) relative to control: fibroblasts grown on collagen; for expression of type I procollagen mRNA relative to control: fibroblasts grown on plastic
Description: as §2, §4, §3
as §1, with “Type I and type III procollagen cDNAs were purchased from American Type Culture Collection (Manassas, Va.). The human α1 (I) (HF677) and α1 (III) (HF934) procollagen cDNAs were enzymatically cleaved, purified, and subsequently end-labeled with ^32P dCTP (New England Nuclear, Boston, Mass.) to generate specific cDNA probes.” left out
as §5

**Q.** Which results are given for `C[C@]12COC(=O)C[C@@H]1CC[C@@H]1[C@@H]2CC[C@@]2(C)[C@H]1CC[C@]2(C)O` [Oxandrolone, 17-methyl-17-hydroxy-2-oxa-5-androstan-3-one]?
**A.** cell morphology (HF 250 cells): no obvious difference; number of fibroblasts (HF 250 cells): did not affect; concentration giving the maximal intensity of collagen α chain staining [1]: 3 µg/mL; increase of type III procollagen mRNA expression (ratio to GAPDH mRNA density) relative to control [2]: enhanced; increase of type III procollagen mRNA expression (ratio to GAPDH mRNA density) relative to control ([2]; listed as oxandrolone): 11 fold; expression of type III procollagen mRNA relative to control [2]: enhanced; expression of type III procollagen mRNA relative to control ([2]; listed as oxandrolone): minimal change; also recorded: minimal effect; expression of type I procollagen mRNA (ratio to GAPDH mRNA density) relative to control (type I procollagen mRNA): doubled; also recorded: increased; expression of type I procollagen mRNA (ratio to GAPDH mRNA density) relative to control (type I procollagen mRNA; listed as oxandrolone): doubles; expression of type I procollagen mRNA relative to control (type I procollagen mRNA): did not noticeably change; also recorded: minimal effect; expression of type I procollagen mRNA relative to control (type I procollagen mRNA; listed as oxandrolone): minimal change
